SMILES strings stand for the structures.

The source of these data is publication PMC6301270 (MedChemComm, 2018).

In this experiment the test system is T.b. brucei (strain 427) bloodstream form parasites. Nature of the experiment: T.b. brucei single concentration screen (10 μM). The conditions noted are these: Trypanosoma brucei, read-out: T.b.brucei % viability (10 µM).
The viability is a read-out of living cells in per cent, often relative to untreated cells. On to `CCOc1ccccc1NC(C)C(=O)Nc1cc(C(F)(F)F)ccc1N1CCOCC1` (stereo not drawn) [MMV407834, CCOc1ccccc1NC(C)C(=O)Nc2cc(ccc2N3CCOCC3)C(F)(F)F], for which the viability at 10 µM is 104%. For `CC1COC(Cn2cncn2)(c2ccc(Oc3ccc(Cl)cc3)cc2Cl)O1` (stereo not drawn) [MMV688943, CC1COC(Cn2cncn2)(O1)c3ccc(Oc4ccc(Cl)cc4)cc3Cl], the viability at 10 µM was found to be 100%. The value for `CCOc1ccc(OCC(=O)Nc2cc(C)cc(C)c2)cc1` [MMV676470, CCOc1ccc(OCC(=O)Nc2cc(C)cc(C)c2)cc1] was 75%; that for `O=C(N[C@H](Cc1ccccc1)C(=O)Nc1ccccc1N1CCOCC1)c1cccs1` [MMV688845, O=C(Nc1ccccc1N2CCOCC2)[C@@H](Cc3ccccc3)NC(=O)c4cccs4] was 94%; that for `CCOc1ccc(-c2nc(NC(=O)CS(=O)(=O)c3ccccc3)sc2C)cc1` [MMV007638, CCOc1ccc(cc1)c2nc(NC(=O)CS(=O)(=O)c3ccccc3)sc2C] was 73%. Turning to `CC(C)(C(=O)Nc1ccc(F)cc1)n1cc(-c2ccccc2F)cn1` [MMV687239, CC(C)(C(=O)Nc1ccc(F)cc1)n2cc(cn2)c3ccccc3F], the viability at 10 µM worked out at 89%. The value for `COc1ccc(-c2cncc3ccc(C(=O)NCCCn4ccnc4)nc23)cc1` [MMV020670, COc1ccc(cc1)c2cncc3ccc(nc23)C(=O)NCCCn4ccnc4] was 51%; that for `Cc1ccc(NC(=O)c2cc(S(=O)(=O)NC(C)(C)C)ccc2C)nc1` [MMV020289, Cc1ccc(NC(=O)c2cc(ccc2C)S(=O)(=O)NC(C)(C)C)nc1] was 93%. For `COCC(C)NC(=O)CSc1ncnc2sc(-c3ccccc3)cc12` (stereo not drawn) [MMV676536, COCC(C)NC(=O)CSc1ncnc2sc(cc12)-c1ccccc1], the viability at 10 µM was 97%.

`NS(=O)(=O)c1cncc(-c2ccc3nccc(-c4cn[nH]c4)c3n2)c1` [MMV024101, NS(=O)(=O)c1cncc(c1)c2ccc3nccc(c4cn[nH]c4)c3n2]: the viability at 10 µM was 36%.

For the molecule `Cc1nn(C)cc1C(C)Nc1nncc(-c2ccc(C(F)(F)F)cc2)n1` (stereo not drawn) [MMV019993, CC(Nc1nncc(n1)c2ccc(cc2)C(F)(F)F)c3cn(C)nc3C], the viability at 10 µM was 104%. With `Cc1cc(Nc2ccncc2)n2nc(C)c(-c3ccccc3Cl)c2n1` [MMV016136, Cc1cc(Nc2ccncc2)n3nc(C)c(c4ccccc4Cl)c3n1] the figure was 113%; with `Cc1cc2nc(NC(=O)C(C)(C)C)nc(Cl)c2n1Cc1ccc(Cl)cc1` [MMV688704, Cc1cc2nc(NC(=O)C(C)(C)C)nc(Cl)c2n1Cc1ccc(Cl)cc1], 88%.

Turning to `COc1cc(NC(=O)Cc2nn(C)c(=O)c3ccccc23)ccc1Cl` [MMV676053, COc1cc(NC(=O)CC2=NN(C)C(=O)c3ccccc23)ccc1Cl], the viability at 10 µM amounted to 100%. The value for `COc1cc(OC)cc(C(=O)NCC2Cc3cc(Cl)cc(-c4ccncc4)c3O2)c1` (stereo not drawn) [MMV007471, COc1cc(OC)cc(c1)C(=O)NCC2Cc3cc(Cl)cc(c3O2)c4ccncc4] was 74%; that for `CC(C)(C)OC(=O)N1CCN(c2nccc(-c3ccc(-c4ccc(Cl)cc4)s3)n2)CC1` [MMV688416, CC(C)(C)OC(=O)N1CCN(CC1)c2nccc(n2)c3ccc(s3)c4ccc(Cl)cc4] was 94%. The value for `CCC(NC(=O)c1ccccc1NC(=O)c1ccc(C)cc1)C(=O)OC` (stereo not drawn) [MMV019551, CCC(NC(=O)c1ccccc1NC(=O)c2ccc(C)cc2)C(=O)OC] was 97%. With `CCC(Sc1nc2ccccc2o1)C(=O)Nc1nnc(C)s1` (stereo not drawn) [MMV611037, CCC(Sc1oc2ccccc2n1)C(=O)Nc3nnc(C)s3] the figure was 113%; with `COc1ccc(-c2nc(-c3cccc(NC(=O)Cc4ccc(F)cc4)c3)no2)cc1OC` [MMV676571, COc1ccc(cc1OC)c2onc(n2)c3cccc(NC(=O)Cc4ccc(F)cc4)c3], 53%. On to `Clc1ccc(CCNc2cc(-c3ccccc3)nc3ncnn23)cc1` [MMV688889, Clc1ccc(CCNc2cc(nc3ncnn23)c4ccccc4)cc1], for which the viability at 10 µM stood at 74%. With `COC(=O)C1=C(C)NC(C)=C(C(=O)OC(C)C)C1c1cccc2nonc12` (stereo not drawn) [MMV001493, COC(=O)C1=C(C)NC(=C(C1c2cccc3nonc23)C(=O)OC(C)C)C] the figure was 97%; with `COc1ccc(C2CC(c3cccs3)=NN2C(=O)c2ccco2)cc1OC` (stereo not drawn) [MMV019234, COc1ccc(cc1OC)C2CC(=NN2C(=O)c3occc3)c4cccs4], 107%. As for `N#Cc1ccc(-c2ccc(OCC(N)=O)cc2)cc1` [MMV053220, NC(=O)COc1ccc(cc1)c2ccc(cc2)C#N], the viability at 10 µM was 68%. With `CC(=O)NC[C@H]1CN(c2ccc(N3CCSCC3)c(F)c2)C(=O)O1` [MMV688756, CC(=O)NC[C@H]1CN(C(=O)O1)c2ccc(N3CCSCC3)c(F)c2] the figure was 106%; with `O=C(NC1CC1)c1ccc(N2CCC(Cc3ccccc3)CC2)nc1` [MMV024397, O=C(NC1CC1)c2ccc(nc2)N3CCC(Cc4ccccc4)CC3], 72%. The value for `CC(C)(C)C(=O)N(CCCCCCN1C[C@H](O)[C@@H](O)[C@H](O)[C@H]1CO)C1CCCCCC1` [MMV688543, CC(C)(C)C(=O)N(CCCCCCN1C[C@H](O)[C@@H](O)[C@H](O)[C@H]1CO)C2CCCCCC2] was 107%. On to `COc1cc(Br)cc2cc(C(=O)Nc3cccc(C(F)(F)F)c3)c(=O)oc12` [MMV688891, COc1cc(Br)cc2C=C(C(=O)Nc3cccc(c3)C(F)(F)F)C(=O)Oc12], for which the viability at 10 µM was found to be 96%.

On to `CCOC(=O)c1cc(-c2csc(Nc3c(C)cc(C)cc3C)n2)on1` [MMV676461, CCOC(=O)c1cc(on1)c2csc(Nc3c(C)cc(C)cc3C)n2], for which the viability at 10 µM was 102%. The value for `O=C1[C@@H](Oc2ccccc2)[C@@H](c2ccc(Cl)cc2)N1CCn1cnc2c(NCc3ccccc3)ncnc21` [MMV688352, Clc1ccc(cc1)[C@@H]2[C@H](Oc3ccccc3)C(=O)N2CCn4cnc5c(NCc6ccccc6)ncnc45] was 107%; that for `FC(F)(F)c1cnc(Sc2nnc(-c3ccncc3)o2)c(Cl)c1` [MMV011765, FC(F)(F)c1cnc(Sc2oc(nn2)c3ccncc3)c(Cl)c1] was 85%. With `Nc1ccc(C(=O)Nc2ccc(-c3nc4ccccc4o3)cc2)cc1` [MMV007920, Nc1ccc(cc1)C(=O)Nc2ccc(cc2)c3oc4ccccc4n3] the figure was 83%; with `Nc1ncc(-c2cn[nH]c2)cc1-c1nc2cc(Cl)cnc2[nH]1` [MMV023370, Nc1ncc(cc1c2nc3cc(Cl)cnc3[nH]2)c4cn[nH]c4], 88%. For `CCc1ccc(C(NCc2nc(N)nc(N(C)C)n2)C(C)C)cc1` (stereo not drawn) [MMV1019989, CCc1ccc(cc1)C(NCc2nc(N)nc(n2)N(C)C)C(C)C], the viability at 10 µM is 92%. The value for `CCCS(=O)(=O)N1CCC(CO)(Cc2ccccc2C(F)(F)F)CC1` [MMV001059, CCCS(=O)(=O)N1CCC(CO)(Cc2ccccc2C(F)(F)F)CC1] was 87%. With `CN1CCN(S(=O)(=O)c2ccc(-c3ccc4c(Nc5ccc6nn[nH]c6c5)ccnc4c3)cc2)CC1` [MMV687246, CN1CCN(CC1)S(=O)(=O)c2ccc(cc2)c3ccc4c(Nc5ccc6nn[nH]c6c5)ccnc4c3], the viability at 10 µM stood at 106%. The value for `O=C1O[C@@H](COc2ccon2)CN1c1cc(F)c(C2=CCN(Cc3ccccc3)CC2)c(F)c1` [MMV687813, Fc1cc(cc(F)c1C2=CCN(Cc3ccccc3)CC2)N4C[C@H](COc5ccon5)OC4=O] was 113%. With `O=C(c1[nH]nc2c1CCCC2)N1CCN(Cc2ccc3c(c2)OCO3)CC1` [MMV676389, O=C(N1CCN(Cc2ccc3OCOc3c2)CC1)c4[nH]nc5CCCCc45] the figure was 95%; with `CNCCC(Oc1ccc(C(F)(F)F)cc1)c1ccccc1` (stereo not drawn) [Compound 33, CNCCC(Oc1ccc(cc1)C(F)(F)F)c2ccccc2], 2.4%; with `COc1ccc(Cl)cc1NC(=O)CN(C)C(=O)c1cnn(-c2ccccc2)n1` [MMV020710, COc1ccc(Cl)cc1NC(=O)CN(C)C(=O)c2cnn(n2)c3ccccc3], 103%. With `FC(F)(F)c1cccc(-c2nc3c(NCc4ccncc4)nccc3[nH]2)c1` [MMV032967, FC(F)(F)c1cccc(c1)c2nc3c(NCc4ccncc4)nccc3[nH]2] the figure was 79%; with `CNc1nnc(Sc2cnn(-c3ccccc3)c(=O)c2Cl)s1` [MMV688763, CNc1nnc(SC2=C(Cl)C(=O)N(N=C2)c3ccccc3)s1], 49%; with `COc1ccc(-c2cnc3ccc(N4CCCC4)nn23)cc1OC` [MMV023985, COc1ccc(cc1OC)c2cnc3ccc(nn23)N4CCCC4], 91%. Consider `Cc1cc(C)n(-c2ccc(NC(=O)C3CCN(Cc4cnc(C)s4)CC3)cc2)n1` [MMV007625, Cc1cc(C)n(n1)c2ccc(NC(=O)C3CCN(Cc4cnc(C)s4)CC3)cc2], for which the viability at 10 µM stood at 65%.

For the molecule `O=C(NCCc1ccccc1)c1cc(-c2cccnc2)cnc1NCC1CC1` [Compound 68, O=C(NCCc1ccccc1)c2cc(cnc2NCC3CC3)c4cccnc4], the viability at 10 µM was found to be 79%.

`O=C(NC1CCN(c2ccnc3ccccc23)C1)c1cccc(C(F)(F)F)c1` (stereo not drawn) [MMV023388, FC(F)(F)c1cccc(c1)C(=O)NC2CCN(C2)c3ccnc4ccccc34]: the viability at 10 µM amounted to 78%. Consider `CCC(C)NC(=O)c1ccc(NC(=O)C2(c3ccccc3)CCCC2)cc1` (stereo not drawn) [MMV146306, CCC(C)NC(=O)c1ccc(NC(=O)C2(CCCC2)c3ccccc3)cc1], for which the viability at 10 µM was 69%. Turning to `COc1ccccc1CNC(=O)c1cc(C2CC2)nc2c1cnn2C(C)C` [MMV020517, COc1ccccc1CNC(=O)c2cc(nc3c2cnn3C(C)C)C4CC4], the viability at 10 µM was found to be 93%. With `Cc1nc(-c2ccccn2)nc(N(C)CCc2ccccc2)c1Cl` [MMV658988, CN(CCc1ccccc1)c2nc(nc(C)c2Cl)c3ccccn3] the figure was 95%; with `CO[C@@H]1CN(c2ccc(C#CC3(O)CN4CCC3CC4)c(Cc3ccccc3)n2)C[C@H]1O` (stereo partly drawn) [MMV688415, CO[C@@H]1CN(C[C@H]1O)c2ccc(C#CC3(O)CN4CCC3CC4)c(Cc5ccccc5)n2], 99%; with `Cc1cc(O)nc(-n2nc(C)cc2C)n1` [MMV393995, Cc1cc(O)nc(n1)n2nc(C)cc2C], 71%.

As for `O=C(Nc1nnc(S)s1)c1cc(Br)ccc1Cl` [MMV676492, Sc1nnc(NC(=O)c2cc(Br)ccc2Cl)s1], the viability at 10 µM came out at 106%.
